ChEMBL document CHEMBL1287680, “C-11 diamino cryptolepine derivatives NSC748392, NSC748393, and NSC748394: anticancer profile and G-quadruplex stabilization” (Bioorg Med Chem Lett, 2010)

Tests used:
[1] = tested on: Vero; experiment: cells; settings: Chlorocebus sabaeus, 48 h
Description: Cytotoxicity against african green monkey Vero cells after 48 hrs by MTT assay

[2] = physchem
Description: Dissociation constant, pKa of the compound by UV-visible spectroscopy

SMILES	pKa [2]	IC50 [1] [nM]
CCN(CC)CCCC(C)Nc1c2ccccc2[n+](C)c2c1[nH]c1ccccc12 (configuration not stated)	11.4	13000
CCN(CC)Cc1ccc(Nc2c3ccccc3[n+](C)c3c2[nH]c2ccccc23)cc1O	10.8	800
CC(C)NCCCNc1c2ccccc2[n+](C)c2c1[nH]c1ccccc12	11.5	3000
CN(C)CCCNc1c2ccccc2[n+](C)c2c1[nH]c1ccccc12	11.9	2200
CN(C)CC(C)(C)CNc1c2ccccc2[n+](C)c2c1[nH]c1ccccc12	11.7	3000
CCN(CC)CCNc1c2ccccc2[n+](C)c2c1[nH]c1ccccc12	11.6	2800
CC(CN(C)C)Nc1c2ccccc2[n+](C)c2c1[nH]c1ccccc12 (configuration not stated)	11.6	3000
CCN(CC)c1c2ccccc2[n+](C)c2c1[nH]c1ccccc12	–	3000
CCN(CC)CCCNc1c2ccccc2[n+](C)c2c1[nH]c1ccccc12	11.6	2500

Now from value to molecule, other results behind:

pKa [2]	SMILES	IC50 [1] [nM]
11.7	C[n+]1c2ccccc2c(NCCCN2CCCCC2)c2[nH]c3ccccc3c21	2000
11.6	C[n+]1c2ccccc2c(NC2CCN(Cc3ccccc3O)CC2)c2[nH]c3ccccc3c21	2600
10.3	C[n+]1c2cc(Cl)ccc2c(NC2CCNCC2)c2[nH]c3cc(Cl)ccc3c21	800
11.6	CC(C)CN1CCC(Nc2c3ccccc3[n+](C)c3c2[nH]c2ccccc23)CC1	5000
10.3	C[n+]1c2ccccc2c(Nc2cccnc2)c2[nH]c3ccccc3c21	2600
11.6	CN(C)CCNc1c2ccccc2[n+](C)c2c1[nH]c1ccccc12	5500
11.1	C[n+]1c2cc(Cl)ccc2c(NC2CCNCC2)c2[nH]c3ccccc3c21	4400
11.5	C[n+]1c2ccccc2c(NC2CCN(Cc3ccccc3)CC2)c2[nH]c3ccccc3c21	2200
11.2	CCN(CC)CCCNc1c2ccc(Cl)cc2[n+](C)c2c1[nH]c1ccccc12	1300
10.6	C[n+]1c2ccccc2c(Nc2ccccc2)c2[nH]c3ccccc3c21	600
